The subject of one assay is HEp-2. Kind of assay: Cytotoxicity against human Hep2 cells after 72 hrs by SRB method. The conditions noted are these: HEp-2, 72 h, read-out: ED50 (the source's name). Format: functional. (In general: In SRB staining, fixed cells bind dye roughly in proportion to their protein.)
The test system of a further assay is KB. Kind of assay: Cytotoxicity against human KB cells after 72 hrs by SRB method. In kind it is functional. The conditions noted are these: read-out: ED50 (the source's name).

The values that follow come from ChEMBL document CHEMBL1157316, “Resin glycosides from the flowers of Ipomoea murucoides” (2006).

Converted amounts (≈) assume the structure as drawn.

Take `CCCCC[C@H]1CCCCCCCCCC(=O)O[C@H]2[C@H](O[C@H]3[C@H](O1)O[C@H](C)[C@H](O)[C@@H]3O)O[C@@H](C)[C@H](O[C@@H]1O[C@@H](C)[C@H](O[C@@H]3O[C@@H](C)[C@H](OC(=O)[C@@H](C)CC)[C@@H](O)[C@H]3O)[C@@H](O[C@@H]3O[C@H](CO)[C@@H](O)[C@H](O)[C@H]3O)[C@H]1OC(=O)[C@@H](C)CC)[C@H]2O` [MURUCOIDIN IV]: in the assay with HEp-2, the EC50 stood at 4 µg/mL (≈ 3.42 µM).
On the same count and under the same terms, under `CCCCC[C@H]1CCCCCCCCCC(=O)O[C@H]2[C@@H](O)[C@H](O[C@H]3[C@H](O1)O[C@H](C)[C@H](O)[C@@H]3O)O[C@@H](C)[C@@H]2O[C@@H]1O[C@@H](C)[C@H](O[C@@H]2O[C@@H](C)[C@H](OC(=O)[C@@H](C)CC)[C@@H](O)[C@H]2O)[C@@H](O[C@@H]2O[C@H](CO)[C@@H](O)[C@H](O)[C@H]2O)[C@H]1OC(=O)[C@@H](C)CC` [MURUCOIDIN V] stands more than 20 µg/mL; under `CCCCC[C@H]1CCCCCCCCCC(=O)O[C@H]2[C@H](O[C@H]3[C@H](O1)O[C@H](C)[C@H](O)[C@@H]3O)O[C@@H](C)[C@H](O[C@@H]1O[C@@H](C)[C@H](O[C@@H]3O[C@@H](C)[C@H](OC(=O)C(C)C)[C@@H](O)[C@H]3O)[C@@H](O[C@@H]3O[C@@H](C)[C@H](O)[C@@H](O)[C@H]3O)[C@H]1OC(=O)[C@@H](C)CC)[C@H]2O` [MURUCOIDIN II], more than 20 µg/mL; under `CCCCC[C@H]1CCCCCCCCCC(=O)O[C@H]2[C@H](O[C@H]3[C@H](O1)O[C@H](C)[C@H](O)[C@@H]3O)O[C@@H](C)[C@H](O[C@@H]1O[C@@H](C)[C@H](O[C@@H]3O[C@@H](C)[C@H](OC(=O)[C@@H](C)CC)[C@@H](O)[C@H]3O)[C@@H](O[C@@H]3O[C@@H](C)[C@H](O)[C@@H](O)[C@H]3O)[C@H]1OC(=O)[C@@H](C)CC)[C@H]2O` [MURUCOIDIN III], more than 20 µg/mL.
With `CCCCC[C@H]1CCCCCCCCCC(=O)O[C@H]2[C@H](O[C@H]3[C@H](O1)O[C@H](C)[C@H](O)[C@@H]3O)O[C@@H](C)[C@H](O[C@@H]1O[C@@H](C)[C@H](O[C@@H]3O[C@@H](C)[C@H](O)[C@@H](O)[C@H]3O)[C@@H](O[C@@H]3O[C@@H](C)[C@H](O)[C@@H](O)[C@H]3O)[C@H]1OC(=O)[C@@H](C)CC)[C@H]2O` [MURUCOIDIN I], the EC50 with HEp-2 is more than 20 µg/mL.
The same measure, in the same setting: the figure for `CCCCC[C@H]1CCCCCCCCCC(=O)O[C@H]2[C@@H](O)[C@H](O[C@H]3[C@H](O1)O[C@H](C)[C@H](O)[C@@H]3O)O[C@@H](C)[C@@H]2O[C@@H]1O[C@@H](C)[C@H](O[C@@H]2O[C@@H](C)[C@H](OC(=O)[C@@H](C)CC)[C@@H](O)[C@H]2O)[C@@H](O[C@@H]2O[C@@H](C)[C@H](O)[C@@H](O)[C@H]2O)[C@H]1OC(=O)[C@@H](C)CC` [STOLONIFERIN I] is more than 20 µg/mL.
On to `CC[C@]1(O)C[C@@H]2CN(CCc3c([nH]c4ccccc34)[C@@](C(=O)OC)(c3cc4c(cc3OC)N(C)[C@H]3[C@@](O)(C(=O)OC)[C@H](OC(C)=O)[C@]5(CC)C=CCN6CC[C@]43[C@@H]65)C2)C1` [VINBLASTINE], for which the results for the EC50 in the assay with KB and with HEp-2 were 0.05 µg/mL (≈ 0.0617 µM) and 0.001 µg/mL (≈ 0.00123 µM), respectively.
